In ChEMBL document CHEMBL1201861, “Genomics of Drug Sensitity in Cancer screening data, Wellcome Trust Sanger Institute”:
pIC50: −log10 of the molar value.

How the values were obtained:
Experiment in all cases: cells
COLO-800 = format: functional, cell-based, Homo sapiens; conditions: Homo sapiens, COLO-800;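 further: growth inhibition of COLO-800 cells, read out with a cell viability assay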
Description: SANGER: Inhibition of human COLO-800 cell growth in a cell viability assay.

Calu-6 = format: functional, cell-based, Homo sapiens; conditions: Homo sapiens, Calu-6;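 further: growth of human Calu-6 cells, read out by a cell viability assay, IC50 marking inhibition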
Description: SANGER: Inhibition of human Calu-6 cell growth in a cell viability assay.

D-263MG = format: functional, cell-based, Homo sapiens; conditions: Homo sapiens, D-263MG
Description: SANGER: Inhibition of human D-263MG cell growth in a cell viability assay.

D-502MG = format: functional, cell-based, Homo sapiens; conditions: Homo sapiens, D-502MG
Description: SANGER: Inhibition of human D-502MG cell growth in a cell viability assay.

DMS-114 = format: functional, cell-based, Homo sapiens; conditions: Homo sapiens, DMS-114
DOHH-2 = format: functional, cell-based, Homo sapiens; conditions: Homo sapiens, DOHH-2;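 further: growth inhibition of human DOHH-2 cells, read out with a cell viability assay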
Description: SANGER: Inhibition of human DOHH-2 cell growth in a cell viability assay.

EM-2 = format: functional, cell-based, Homo sapiens; conditions: Homo sapiens, EM-2;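 further: growth inhibition of EM-2 cells, read out with a cell viability assay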
Description: SANGER: Inhibition of human EM-2 cell growth in a cell viability assay.

ES7 = format: functional, cell-based, Homo sapiens; conditions: Homo sapiens, ES7;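 further: growth inhibition of cultured human ES7 cells, read out as cell viability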
Description: SANGER: Inhibition of human ES7 cell growth in a cell viability assay.

EW-11 = format: functional, cell-based, Homo sapiens; conditions: Homo sapiens, EW-11;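 further: growth inhibition of human EW-11 cells, measured with a cell viability assay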
Description: SANGER: Inhibition of human EW-11 cell growth in a cell viability assay.

EW-3 = format: functional, cell-based, Homo sapiens; conditions: Homo sapiens, EW-3;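 further: cell viability assay read-out, IC50 reflects inhibition of growth of the EW-3 cells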
Description: SANGER: Inhibition of human EW-3 cell growth in a cell viability assay.

HAL-01 = format: functional, cell-based, Homo sapiens; conditions: Homo sapiens, HAL-01;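 further: growth inhibition of human HAL-01 cells, read out with a cell viability assay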
Description: SANGER: Inhibition of human HAL-01 cell growth in a cell viability assay.

HD-MY-Z = format: functional, cell-based, Homo sapiens; conditions: Homo sapiens, HD-MY-Z;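 further: growth inhibition of HD-MY-Z cells, read out with a cell viability assay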
Description: SANGER: Inhibition of human HD-MY-Z cell growth in a cell viability assay.

HT = format: functional, cell-based, Homo sapiens; conditions: Homo sapiens, HT
Description: SANGER: Inhibition of human HT cell growth in a cell viability assay.

HT-144 = format: functional, cell-based, Homo sapiens; conditions: Homo sapiens, HT-144
Description: SANGER: Inhibition of human HT-144 cell growth in a cell viability assay.

J-RT3-T3-5 = format: functional, cell-based, Homo sapiens; conditions: Homo sapiens, J-RT3-T3-5;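 further: cell viability assay measuring growth inhibition of human J-RT3-T3-5 cells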
Description: SANGER: Inhibition of human J-RT3-T3-5 cell growth in a cell viability assay.

K5 = format: functional, cell-based, Homo sapiens; conditions: Homo sapiens, K5
Description: SANGER: Inhibition of human K5 cell growth in a cell viability assay.

KMOE-2 = format: functional, cell-based, Homo sapiens; conditions: Homo sapiens, KMOE-2;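 further: growth inhibition of human KMOE-2 cells, read out with a cell viability assay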
Description: SANGER: Inhibition of human KMOE-2 cell growth in a cell viability assay.

L-428 = format: functional, cell-based, Homo sapiens; conditions: Homo sapiens, L-428
Description: SANGER: Inhibition of human L-428 cell growth in a cell viability assay.

LNCaP-Clone-FGC = format: functional, cell-based, Homo sapiens; conditions: Homo sapiens, LNCaP-Clone-FGC
Description: SANGER: Inhibition of human LNCaP-Clone-FGC cell growth in a cell viability assay.

LOX IMVI = format: functional, cell-based, Homo sapiens; conditions: Homo sapiens, LOX IMVI
Description: SANGER: Inhibition of human LOXIMVI cell growth in a cell viability assay.

LS-411N = format: functional, cell-based, Homo sapiens; conditions: Homo sapiens, LS-411N
LXF-289 cell line = format: functional, cell-based, Homo sapiens; conditions: Homo sapiens, LXF-289
Description: SANGER: Inhibition of human LXF-289 cell growth in a cell viability assay.

MC116 = format: functional, cell-based, Homo sapiens; conditions: Homo sapiens, MC116;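 further: growth inhibition of MC116 cells, read out with a cell viability assay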
Description: SANGER: Inhibition of human MC116 cell growth in a cell viability assay.

MLMA = format: functional, cell-based, Homo sapiens; conditions: Homo sapiens, MLMA;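 further: growth inhibition of MLMA cells (human), determined through a cell viability readout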
Description: SANGER: Inhibition of human MLMA cell growth in a cell viability assay.

MV4-11 = format: functional, cell-based, Homo sapiens, MV-4-11; conditions: Homo sapiens, MV4-11;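 further: cell viability readout measuring growth inhibition of human MV-4-11 cells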
Description: SANGER: Inhibition of human MV-4-11 cell growth in a cell viability assay.

NCI-H1092 = format: functional, cell-based, Homo sapiens; conditions: Homo sapiens, NCI-H1092;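 further: cell growth inhibition measured with a cell viability assay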
Description: SANGER: Inhibition of human NCI-H1092 cell growth in a cell viability assay.

NCI-H1355 = format: functional, cell-based, Homo sapiens; conditions: Homo sapiens, NCI-H1355;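 further: growth inhibition of human NCI-H1355 cells, read out by a cell viability assay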
Description: SANGER: Inhibition of human NCI-H1355 cell growth in a cell viability assay.

NCI-H23 = format: functional, cell-based, Homo sapiens; conditions: Homo sapiens, NCI-H23;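 further: cell viability assay measuring growth inhibition of NCI-H23 cells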
Description: SANGER: Inhibition of human NCI-H23 cell growth in a cell viability assay.

NCI-H747 = format: functional, cell-based, Homo sapiens; conditions: Homo sapiens, NCI-H747;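 further: growth inhibition of human NCI-H747 cells, read out by a cell viability assay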
Description: SANGER: Inhibition of human NCI-H747 cell growth in a cell viability assay.

OVCAR-4 = format: functional, cell-based, Homo sapiens; conditions: Homo sapiens, OVCAR-4;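 further: growth inhibition of human OVCAR-4 cells, measured with a cell viability assay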
Description: SANGER: Inhibition of human OVCAR-4 cell growth in a cell viability assay.

RCC10RGB = format: functional, cell-based, Homo sapiens; conditions: Homo sapiens, RCC10RGB;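 further: growth inhibition of human RCC10RGB cells, read out by a cell viability assay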
Description: SANGER: Inhibition of human RCC10RGB cell growth in a cell viability assay.

RH-1 = format: functional, cell-based, Homo sapiens; conditions: Homo sapiens, RH-1;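 further: growth inhibition of human RH-1 cells, read out with a cell viability assay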
Description: SANGER: Inhibition of human RH-1 cell growth in a cell viability assay.

RKO = format: functional, cell-based, Homo sapiens; conditions: Homo sapiens, RKO;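 further: growth inhibition of human RKO cells, read out with a cell viability assay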
Description: SANGER: Inhibition of human RKO cell growth in a cell viability assay.

SF-126 = format: functional, cell-based, Homo sapiens; conditions: Homo sapiens, SF-126;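 further: growth inhibition of human SF126 cells, read out with a cell viability assay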
Description: SANGER: Inhibition of human SF126 cell growth in a cell viability assay.

SJSA-1 = format: functional, cell-based, Homo sapiens; conditions: Homo sapiens, SJSA-1;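 further: growth inhibition of human SJSA-1 cells, read out through a cell viability measurement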
Description: SANGER: Inhibition of human SJSA-1 cell growth in a cell viability assay.

SK-LMS-1 = format: functional, cell-based, Homo sapiens; conditions: Homo sapiens, SK-LMS-1;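 further: growth inhibition of human SK-LMS-1 cells, read out with a cell viability assay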
Description: SANGER: Inhibition of human SK-LMS-1 cell growth in a cell viability assay.

SNB-75 = format: functional, cell-based, Homo sapiens; conditions: Homo sapiens, SNB-75;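 further: cell viability assay measuring growth inhibition of human SNB-75 cells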
Description: SANGER: Inhibition of human SNB75 cell growth in a cell viability assay.

TE-1 = format: functional, cell-based, Homo sapiens; conditions: Homo sapiens, TE-1
Description: SANGER: Inhibition of human TE-1 cell growth in a cell viability assay.

A498 = format: functional, cell-based, Homo sapiens; conditions: Homo sapiens, A498;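 further: growth inhibition of human A498 cells, read out with a cell viability assay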
Description: SANGER: Inhibition of human A498 cell growth in a cell viability assay.

A704 = format: functional, cell-based, Homo sapiens; conditions: Homo sapiens, A704;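 further: growth inhibition of human A704 cells, read out with a cell viability assay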
Description: SANGER: Inhibition of human A704 cell growth in a cell viability assay.

BB65-RCC = format: functional, cell-based, Homo sapiens; conditions: Homo sapiens, BB65-RCC;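 further: growth inhibition of the cell line, measured with a cell viability assay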
Description: SANGER: Inhibition of human BB65-RCC cell growth in a cell viability assay.

BV-173 = format: functional, cell-based, Homo sapiens; conditions: Homo sapiens, BV-173
Description: SANGER: Inhibition of human BV-173 cell growth in a cell viability assay.

C8166 = format: functional, cell-based, Homo sapiens; conditions: Homo sapiens, C8166;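 further: growth inhibition of human C8166 cells measured by a cell viability assay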
Description: SANGER: Inhibition of human C8166 cell growth in a cell viability assay.

TE-10 = format: functional, cell-based, Homo sapiens; conditions: Homo sapiens, TE-10;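 further: growth inhibition of TE-10 cells, measured by a cell viability assay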
Description: SANGER: Inhibition of human TE-10 cell growth in a cell viability assay.

TE-11 = format: functional, cell-based, Homo sapiens; conditions: Homo sapiens, TE-11;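 further: growth inhibition of human TE-11 cells, read out by a cell viability assay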
Description: SANGER: Inhibition of human TE-11 cell growth in a cell viability assay.

TGW = format: functional, cell-based, Homo sapiens; conditions: Homo sapiens, TGW;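 further: growth inhibition of human TGW cells, read out with a cell viability assay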
Description: SANGER: Inhibition of human TGW cell growth in a cell viability assay.

TK-10 = format: functional, cell-based, Homo sapiens; conditions: Homo sapiens, TK-10;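 further: growth inhibition of TK-10 cells, read out in a cell viability assay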
Description: SANGER: Inhibition of human TK10 cell growth in a cell viability assay.

no-11 = format: functional, cell-based, Homo sapiens; conditions: Homo sapiens;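 further: growth inhibition of human NO-11 cells, read out with a cell viability assay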
Description: SANGER: Inhibition of human no-11 cell growth in a cell viability assay.

NB12 = format: functional, cell-based, Homo sapiens; conditions: Homo sapiens, NB12;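 further: growth inhibition of human NB12 cells, read out by a cell viability assay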
Description: SANGER: Inhibition of human NB12 cell growth in a cell viability assay.

N[C@@H](CSC(c1ccccc1)(c1ccccc1)c1ccccc1)C(=O)O [S-TRITYL-L-CYSTEINE]
pIC50 (COLO-800): < 5.29 | pIC50 (Calu-6): 6.37 | pIC50 (D-263MG): < 5.29 | pIC50 (D-502MG): < 5.29 | pIC50 (DMS-114): 5.49 | pIC50 (DOHH-2): 6.06 | pIC50 (EM-2): < 5.29 | pIC50 (ES7): < 5.29 | pIC50 (EW-11): < 5.29 | pIC50 (EW-3): 5.31 | pIC50 (HAL-01): 5.62 | pIC50 (HD-MY-Z): 5.65 | pIC50 (HT): 5.57 | pIC50 (HT-144): 6.51 | pIC50 (J-RT3-T3-5): 6.01 | pIC50 (K5): 5.98 | pIC50 (KMOE-2): < 5.29 | pIC50 (L-428): 5.49 | pIC50 (LNCaP-Clone-FGC): < 5.29 | pIC50 (LOX IMVI): < 5.29 | pIC50 (LS-411N): 5.82 | pIC50 (LXF-289 cell line): 6.01 | pIC50 (MC116): 6.15 | pIC50 (MLMA): 5.34 | pIC50 (MV4-11): 6.42 | pIC50 (NCI-H1092): < 5.29 | pIC50 (NCI-H1355): 6.03 | pIC50 (NCI-H23): < 5.29 | pIC50 (NCI-H747): < 5.29 | pIC50 (OVCAR-4): 5.42 | pIC50 (RCC10RGB): < 5.29 | pIC50 (RH-1): < 5.29 | pIC50 (RKO): 6.17 | pIC50 (SF-126): 5.52 | pIC50 (SJSA-1): 6.12 | pIC50 (SK-LMS-1): < 5.29 | pIC50 (SNB-75): 5.56 | pIC50 (TE-1): 5.44 | pIC50 (A498): < 5.29 | pIC50 (A704): < 5.29 | pIC50 (BB65-RCC): 5.62 | pIC50 (BV-173): 6.00 | pIC50 (C8166): < 5.29 | pIC50 (TE-10): 6.14 | pIC50 (TE-11): 6.35 | pIC50 (TGW): < 5.29 | pIC50 (TK-10): < 5.29 | pIC50 (no-11): 5.31

Cc1ccc(-c2c(C(=O)CCl)n(CCCO)c3ncnc(N)c23)cc1
pIC50 (COLO-800): < 5.40 | pIC50 (Calu-6): < 5.40 | pIC50 (D-263MG): < 5.40 | pIC50 (D-502MG): < 5.40 | pIC50 (DMS-114): < 5.40 | pIC50 (DOHH-2): 5.57 | pIC50 (EM-2): < 5.40 | pIC50 (ES7): < 5.40 | pIC50 (EW-11): < 5.40 | pIC50 (EW-3): < 5.40 | pIC50 (HAL-01): < 5.40 | pIC50 (HD-MY-Z): 5.60 | pIC50 (HT): < 5.40 | pIC50 (HT-144): 5.48 | pIC50 (J-RT3-T3-5): < 5.40 | pIC50 (K5): < 5.40 | pIC50 (KMOE-2): < 5.40 | pIC50 (L-428): < 5.40 | pIC50 (LNCaP-Clone-FGC): < 5.40 | pIC50 (LOX IMVI): < 5.40 | pIC50 (LS-411N): < 5.40 | pIC50 (LXF-289 cell line): < 5.40 | pIC50 (MC116): < 5.40 | pIC50 (MLMA): < 5.40 | pIC50 (MV4-11): < 5.40 | pIC50 (NCI-H1092): < 5.40 | pIC50 (NCI-H1355): < 5.40 | pIC50 (NCI-H23): < 5.40 | pIC50 (NCI-H747): < 5.40 | pIC50 (OVCAR-4): < 5.40 | pIC50 (RCC10RGB): < 5.40 | pIC50 (RH-1): < 5.40 | pIC50 (RKO): < 5.40 | pIC50 (SF-126): < 5.40 | pIC50 (SJSA-1): < 5.40 | pIC50 (SK-LMS-1): 5.85 | pIC50 (SNB-75): < 5.40 | pIC50 (TE-1): < 5.40 | pIC50 (A498): < 5.40 | pIC50 (A704): < 5.40 | pIC50 (BB65-RCC): < 5.40 | pIC50 (BV-173): < 5.40 | pIC50 (C8166): < 5.40 | pIC50 (TE-10): < 5.40 | pIC50 (TE-11): < 5.40 | pIC50 (TGW): < 5.40 | pIC50 (TK-10): 5.71 | pIC50 (no-11): < 5.40

CC(C)c1ccccc1Cc1cc(C(=O)Nc2ccc(S(=O)(=O)c3ccccc3C(C)(C)C)cc2)c(O)c(O)c1O
pIC50 (COLO-800): 6.74 | pIC50 (Calu-6): 6.05 | pIC50 (D-263MG): 6.55 | pIC50 (D-502MG): 5.31 | pIC50 (DMS-114): 7.04 | pIC50 (ES7): 6.57 | pIC50 (EW-11): 6.36 | pIC50 (HD-MY-Z): 6.40 | pIC50 (HT-144): 6.82 | pIC50 (K5): 5.75 | pIC50 (LNCaP-Clone-FGC): 6.27 | pIC50 (LOX IMVI): 6.57 | pIC50 (LS-411N): 5.91 | pIC50 (LXF-289 cell line): 7.14 | pIC50 (MLMA): 6.73 | pIC50 (NB12): 6.87 | pIC50 (NCI-H1355): 5.89 | pIC50 (NCI-H23): 6.46 | pIC50 (NCI-H747): 6.89 | pIC50 (OVCAR-4): 6.22 | pIC50 (RCC10RGB): 4.86 | pIC50 (RH-1): 6.80 | pIC50 (RKO): 7.82 | pIC50 (SF-126): 7.24 | pIC50 (SJSA-1): 6.49 | pIC50 (SK-LMS-1): 6.57 | pIC50 (TE-1): 6.02 | pIC50 (A498): 5.83 | pIC50 (BB65-RCC): 6.87 | pIC50 (TE-10): 5.91 | pIC50 (TE-11): 6.82 | pIC50 (TK-10): 6.34 | pIC50 (no-11): 5.55
